From PubChem BioAssay (NCI)
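A five-concentration, 48-hour dose response in 96-well plates underlies each endpoint, interpolated linearly between surrounding concentrations. TGI: total growth inhibition.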

Assays:
Experiment in all cases: NCI anticancer screen, dose series, 48 h
SK-MEL-2 melanoma = test system: SK-MEL-2 melanoma
CCRF-CEM leukemia = test system: CCRF-CEM leukemia
A549 NSCLC = test system: A549 NSCLC
SW-620 colon = test system: SW-620 colon
SR leukemia = test system: SR leukemia
HCT-15 colon = test system: HCT-15 colon
MDA-N = test system: MDA-N
HOP-62 NSCLC = test system: HOP-62 NSCLC
HCC-2998 colon = test system: HCC-2998 colon
HL-60(TB) leukemia = test system: HL-60(TB) leukemia
SK-MEL-28 melanoma = test system: SK-MEL-28 melanoma
EKVX NSCLC = test system: EKVX NSCLC
ACHN renal = test system: ACHN renal
MDA-MB-435 = test system: MDA-MB-435
MOLT-4 leukemia = test system: MOLT-4 leukemia
SNB-19 CNS = test system: SNB-19 CNS
SF-295 CNS = test system: SF-295 CNS
OVCAR-8 ovarian = test system: OVCAR-8 ovarian
SNB-75 CNS = test system: SNB-75 CNS
PC-3 prostate = test system: PC-3 prostate
M14 melanoma = test system: M14 melanoma
MCF7 breast = test system: MCF7 breast
OVCAR-4 ovarian = test system: OVCAR-4 ovarian
786-0 renal = test system: 786-0 renal
UACC-62 melanoma = test system: UACC-62 melanoma
CAKI-1 renal = test system: CAKI-1 renal
NCI-H460 lung = test system: NCI-H460 lung
K-562 leukemia = test system: K-562 leukemia
COLO 205 colon = test system: COLO 205 colon
HCT-116 colon = test system: HCT-116 colon
SN12C renal = test system: SN12C renal
TK-10 renal = test system: TK-10 renal
U251 CNS = test system: U251 CNS
RPMI-8226 leukemia = test system: RPMI-8226 leukemia
NCI-H226 lung = test system: NCI-H226 lung
RXF 393 renal = test system: RXF 393 renal
HT29 colon = test system: HT29 colon
NCI/ADR-RES ovarian = test system: NCI/ADR-RES ovarian
LOX IMVI melanoma = test system: LOX IMVI melanoma
MDA-MB-231 breast = test system: MDA-MB-231 breast
HOP-92 NSCLC = test system: HOP-92 NSCLC
NCI-H522 lung = test system: NCI-H522 lung
UO-31 renal = test system: UO-31 renal
DU-145 prostate = test system: DU-145 prostate
T-47D breast = test system: T-47D breast
SK-MEL-5 melanoma = test system: SK-MEL-5 melanoma
OVCAR-5 ovarian = test system: OVCAR-5 ovarian
SK-OV-3 ovarian = test system: SK-OV-3 ovarian
NCI-H23 lung = test system: NCI-H23 lung
KM12 colon = test system: KM12 colon
IGROV1 ovarian = test system: IGROV1 ovarian
HS 578T breast = test system: HS 578T breast
OVCAR-3 ovarian = test system: OVCAR-3 ovarian
UACC-257 melanoma = test system: UACC-257 melanoma
SF-539 CNS = test system: SF-539 CNS
SF-268 CNS = test system: SF-268 CNS
A498 renal = test system: A498 renal
MALME-3M melanoma = test system: MALME-3M melanoma

OC(c1ccoc1)c1cc2ccccc2s1 (stereo not drawn)
TGI (SK-MEL-2 melanoma): > 10 µM | TGI (CCRF-CEM leukemia): > 10 µM | TGI (A549 NSCLC): > 10 µM | TGI (SW-620 colon): > 10 µM | TGI (SR leukemia): > 10 µM | TGI (HCT-15 colon): > 10 µM | TGI (MDA-N): > 10 µM | TGI (HOP-62 NSCLC): > 10 µM | TGI (HCC-2998 colon): > 10 µM | TGI (HL-60(TB) leukemia): > 10 µM | TGI (SK-MEL-28 melanoma): > 10 µM | TGI (EKVX NSCLC): > 10 µM | TGI (ACHN renal): > 10 µM | TGI (MDA-MB-435): > 10 µM | TGI (MOLT-4 leukemia): > 10 µM | TGI (SNB-19 CNS): > 10 µM | TGI (SF-295 CNS): > 10 µM | TGI (OVCAR-8 ovarian): > 10 µM | TGI (SNB-75 CNS): > 10 µM | TGI (PC-3 prostate): > 10 µM | TGI (M14 melanoma): > 10 µM | TGI (MCF7 breast): > 10 µM | TGI (OVCAR-4 ovarian): > 10 µM | TGI (786-0 renal): > 10 µM | TGI (UACC-62 melanoma): > 10 µM | TGI (CAKI-1 renal): > 10 µM | TGI (NCI-H460 lung): > 10 µM | TGI (K-562 leukemia): > 10 µM | TGI (COLO 205 colon): > 10 µM | TGI (HCT-116 colon): > 10 µM | TGI (SN12C renal): > 10 µM | TGI (TK-10 renal): > 10 µM | TGI (U251 CNS): > 10 µM | TGI (RPMI-8226 leukemia): > 10 µM | TGI (NCI-H226 lung): > 10 µM | TGI (RXF 393 renal): > 10 µM | TGI (HT29 colon): > 10 µM | TGI (NCI/ADR-RES ovarian): > 10 µM | TGI (LOX IMVI melanoma): > 10 µM | TGI (MDA-MB-231 breast): > 10 µM | TGI (HOP-92 NSCLC): > 10 µM | TGI (NCI-H522 lung): > 10 µM | TGI (UO-31 renal): > 10 µM | TGI (DU-145 prostate): > 10 µM | TGI (T-47D breast): > 10 µM | TGI (SK-MEL-5 melanoma): > 10 µM | TGI (OVCAR-5 ovarian): > 10 µM | TGI (SK-OV-3 ovarian): > 10 µM | TGI (NCI-H23 lung): > 10 µM | TGI (KM12 colon): > 10 µM | TGI (IGROV1 ovarian): > 10 µM | TGI (HS 578T breast): > 10 µM | TGI (OVCAR-3 ovarian): > 10 µM | TGI (UACC-257 melanoma): > 10 µM | TGI (SF-539 CNS): > 10 µM | TGI (SF-268 CNS): > 10 µM

CC12CP(=O)(c3ccccc3)CC1c1ccccc1C2c1ccccc1 (stereo not drawn)
TGI (SK-MEL-2 melanoma): 49.4 µM | TGI (CCRF-CEM leukemia): 23.5 µM | TGI (A549 NSCLC): 36.2 µM | TGI (SW-620 colon): 33.2 µM | TGI (SR leukemia): 29.8 µM | TGI (HCT-15 colon): 27.2 µM | TGI (MDA-N): 33.6 µM | TGI (HOP-62 NSCLC): 35.4 µM | TGI (HCC-2998 colon): 33.9 µM | TGI (HL-60(TB) leukemia): 28.5 µM | TGI (SK-MEL-28 melanoma): 75 µM | TGI (EKVX NSCLC): 44.6 µM | TGI (ACHN renal): 41.1 µM | TGI (MDA-MB-435): 30.1 µM | TGI (MOLT-4 leukemia): 31 µM | TGI (SNB-19 CNS): > 100 µM | TGI (SF-295 CNS): 29.8 µM | TGI (OVCAR-8 ovarian): 28.6 µM | TGI (A498 renal): > 100 µM | TGI (PC-3 prostate): 27.1 µM | TGI (M14 melanoma): 31.8 µM | TGI (MCF7 breast): > 100 µM | TGI (786-0 renal): 32.8 µM | TGI (UACC-62 melanoma): > 100 µM | TGI (NCI-H460 lung): 27.6 µM | TGI (K-562 leukemia): 25.5 µM | TGI (HCT-116 colon): 30.4 µM | TGI (SN12C renal): 32.2 µM | TGI (TK-10 renal): > 100 µM | TGI (U251 CNS): 36.7 µM | TGI (NCI-H226 lung): 44.1 µM | TGI (RXF 393 renal): 46.6 µM | TGI (HT29 colon): 28.8 µM | TGI (NCI/ADR-RES ovarian): 32.7 µM | TGI (MDA-MB-231 breast): 40.1 µM | TGI (HOP-92 NSCLC): 50 µM | TGI (UO-31 renal): 30.4 µM | TGI (DU-145 prostate): 64 µM | TGI (T-47D breast): 37.5 µM | TGI (SK-MEL-5 melanoma): 55.1 µM | TGI (OVCAR-5 ovarian): > 100 µM | TGI (SK-OV-3 ovarian): > 100 µM | TGI (NCI-H23 lung): 41.8 µM | TGI (KM12 colon): 33.6 µM | TGI (MALME-3M melanoma): 30.3 µM | TGI (IGROV1 ovarian): 46 µM | TGI (HS 578T breast): > 100 µM | TGI (OVCAR-3 ovarian): 31.7 µM | TGI (SF-539 CNS): 34.1 µM | TGI (SF-268 CNS): 67 µM

Oc1ccc(O)c(Cc2ccccc2)c1
TGI (SK-MEL-2 melanoma): 37.3 µM | TGI (CCRF-CEM leukemia): > 100 µM | TGI (A549 NSCLC): > 100 µM | TGI (SW-620 colon): 56.9 µM | TGI (SR leukemia): 14.5 µM | TGI (HCT-15 colon): 29.1 µM | TGI (MDA-N): 41.5 µM | TGI (HOP-62 NSCLC): 60.3 µM | TGI (HCC-2998 colon): > 100 µM | TGI (HL-60(TB) leukemia): 4.14 µM | TGI (SK-MEL-28 melanoma): > 100 µM | TGI (EKVX NSCLC): > 100 µM | TGI (ACHN renal): 28.7 µM | TGI (MDA-MB-435): 42 µM | TGI (MOLT-4 leukemia): 22.8 µM | TGI (SNB-19 CNS): > 100 µM | TGI (SF-295 CNS): > 100 µM | TGI (OVCAR-8 ovarian): 33.9 µM | TGI (A498 renal): > 100 µM | TGI (PC-3 prostate): > 100 µM | TGI (M14 melanoma): 73.9 µM | TGI (MCF7 breast): 29.4 µM | TGI (OVCAR-4 ovarian): 27.2 µM | TGI (786-0 renal): 33.7 µM | TGI (UACC-62 melanoma): 56.1 µM | TGI (NCI-H460 lung): 49.5 µM | TGI (K-562 leukemia): 25.8 µM | TGI (COLO 205 colon): 32.6 µM | TGI (SN12C renal): 38.6 µM | TGI (TK-10 renal): 51.3 µM | TGI (U251 CNS): 45.8 µM | TGI (RPMI-8226 leukemia): 21.3 µM | TGI (NCI-H226 lung): 57.2 µM | TGI (HT29 colon): > 100 µM | TGI (NCI/ADR-RES ovarian): 42.9 µM | TGI (LOX IMVI melanoma): 41 µM | TGI (MDA-MB-231 breast): 46.6 µM | TGI (HOP-92 NSCLC): 35.6 µM | TGI (UO-31 renal): 28.4 µM | TGI (DU-145 prostate): 22.8 µM | TGI (T-47D breast): 11.8 µM | TGI (SK-MEL-5 melanoma): 37.9 µM | TGI (OVCAR-5 ovarian): > 100 µM | TGI (SK-OV-3 ovarian): > 100 µM | TGI (NCI-H23 lung): > 100 µM | TGI (KM12 colon): 65.2 µM | TGI (MALME-3M melanoma): 88.9 µM | TGI (HS 578T breast): > 100 µM | TGI (OVCAR-3 ovarian): 7.8 µM | TGI (UACC-257 melanoma): 99.5 µM | TGI (SF-539 CNS): 23 µM | TGI (SF-268 CNS): 27.8 µM
